# Experimental data reported in patent US12667602B2, “Composition for preventing, treating or alleviating diabetes, comprising LGI3-derived peptide as an active ingredient” (CHUNG-ANG UNIVERSITY INDUSTRY-ACADEMIC COOPERATION …, priority 2019, dated 2026).
# Residues, ends and D or L forms follow the SMILES beside them.
# Experiment: Solubility in water
# Format: physicochemical
row,solubility,SMILES
1,10000 µg/mL,CC(C)C[C@H](NC(=O)[C@H](C)NC(=O)[C@H](CCC(N)=O)NC(=O)[C@H](Cc1c[nH]cn1)NC(=O)[C@H](CO)NC(=O)[C@H](Cc1ccc(O)cc1)NC(=O)[C@H](Cc1ccccc1)NC(=O)CNC(=O)[C@H](CC(N)=O)NC(=O)[C@@H](N)CCC(N)=O)C(=O)N[C@@H](Cc1c[nH]cn1)C(=O)N[C@@H](C)C(=O)N[C@@H](Cc1c[nH]c2ccccc12)C(=O)N[C@@H](Cc1c[nH]cn1)C(=O)N[C@@H](CCCNC(=N)N)C(=O)O [P25] (H-QNGFYSHQALHAWHR-OH; N-terminus and C-terminus assumed)
2,1000 µg/mL,CC(C)C[C@H](NC(=O)[C@H](CCC(=O)O)NC(=O)[C@H](CCC(N)=O)NC(=O)[C@H](Cc1ccccc1)NC(=O)[C@H](CCCNC(=N)N)NC(=O)[C@@H](NC(=O)[C@H](Cc1ccccc1)NC(=O)[C@H](CCCCN)NC(=O)[C@H](CCC(N)=O)NC(=O)[C@H](CCCNC(=N)N)NC(=O)CNC(=O)[C@H](CCC(=O)O)NC(=O)[C@@H](N)CC(=O)O)C(C)C)C(=O)N[C@@H](C)C(=O)N[C@H](C(=O)O)C(C)C [P34] (H-DEGRQKFVRFQELAV-OH; N-terminus and C-terminus assumed)
